According to patent US20260083751A1, “ALLOSTERIC MODULATORS OF ANDROGEN RECEPTOR COACTIVATOR RECRUITMENT FOR CRPC THERAPY” (University of Pittsburgh – Of the Commonwealth System of …, priority 2022, published 2026):
“And” between values parts separate entries of the source, which are not always exact repeats. Equal entries are not always repeated. Where two headings read alike, the source gives them in different places.

Columns and labels:
[1] = system: DHT-induced full length AR PSA promoter-driven transcription in C4-2 CRPC cells; test: PSA-6.1 luciferase reporter assay in C4-2 CRPC cells; format: cell-based
Description: Prostate Specific Antigen (PSA)-6.1 Luciferase Reporter Assay in the C4-2 CRPC Cell Line: The PSA-6.1-Luc luciferase reporter plasmid was provided by Dr. Zhou Wang in the Urology department of the University of Pittsburgh Cancer Institute. The PSA-6.1-Luc reporter is controlled by a fragment of the PSA promoter that contains at least three AREs. The PSA-6.1-Luc plasmid (12 ng/well) was combined with FuGENE® 6 transfection agent at a ratio 6:1 in SFM and incubated for 25 minutes at room temperature before being combined with C4-2 cells suspended in RPMI 1640 media containing 1% penicillin-streptomycin, 1% L-glutamine, and 10% FBS. Transfected cells were then seeded into white opaque 384-well assay plates (Greiner Bio-one, #781080) at 6,000 cells per well in a volume of 30 μL and incubated in 5% CO2, 37° C., and 95% humidity for 24 h.

[2] = target: T1, AR-LBD / TIF2 box III LXXLL peptide (Homo sapiens, UniProt P10275); test: AR-LBD::TIF2 Box III LXXLL peptide binding AlphaScreen assay
T1 construct: The pET28a-AR-LBD (622-919) construct; made in house
T1 sequence (P10275 622-919): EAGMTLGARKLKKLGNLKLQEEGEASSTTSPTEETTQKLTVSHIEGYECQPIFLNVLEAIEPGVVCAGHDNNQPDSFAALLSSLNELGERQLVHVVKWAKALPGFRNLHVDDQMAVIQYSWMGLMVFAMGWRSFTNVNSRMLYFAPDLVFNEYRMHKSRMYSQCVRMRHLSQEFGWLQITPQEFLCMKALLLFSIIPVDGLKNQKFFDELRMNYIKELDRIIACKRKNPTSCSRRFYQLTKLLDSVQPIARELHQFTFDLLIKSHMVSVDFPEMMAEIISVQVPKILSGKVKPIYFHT
Description: […] Biotinylated (Biotin-HN-[…]-CONH2; SEQ ID NO: 1) and non-biotinylated TIF2-box-III (738-756) peptide (H2N-[…]-CONH2; SEQ ID NO: 2) were synthesized by the Peptide & Peptoid Synthesis Facility, at the University of Pittsburgh Health Sciences Core Research Facilities. ALPHAScreen® streptavidin donor beads (SA-DB) and nickel chelate acceptor beads (Ni-AB) were purchased from Perkin Elmer (Waltham, MA). The assay was performed in 384-well white opaque plates (Greiner BioOne, #781080). […] 18 μL of the SA-DB bound biotinylated TIF2 peptide mixture was added to the assay plate before 5 μL of compounds were transferred into assay wells and 27 μL of the AlphaScreen® donor and acceptor B bead mixture was added to the plate. 32 wells containing 0.5% DMSO provided maximum controls and 32 wells containing a 500-fold excess of unlabeled TIF2-box-III (75 μM) were used as minimum controls. The combined head-protein-peptide-compound mixture was incubated for 1 h at room temperature in the dark, and then the RLU's were acquired at 520 nm after excitation at 680 nm on an EnVision® plate reader (Perkin Elmer, Waltham, MA) as described previously (Fancher et al., Assay Drug Dev Technol. 2019, 17:364-386).

[3] = system: AR-V7-mediated PSA promoter-driven transcription in PC3-AR-V7-GFP cells; test: PSA6.1 promoter driven luciferase reporter assay in PC3-AR-V7-GFP cells; format: cell-based
Description: PSA6.1 Promoter Driven Luciferase Reporter Assay in PC3-AR-V7-GFP Cells: PC3-AR-V7-GFP cells were bulk transfected with a mixture of FuGENE® HD transfection agent and the PSA-6.1-Luc reporter plasmid (20 ng/well) combined at a 3:1 (μL:μg) ratio in Opti-MEM™ medium (Gibco, Gaithersburg, MD) that had been incubated for 25 min at RT before being added to PC3-AR-V7-GFP cells that were suspended in RPMI 1640 (Gibco) media containing 1% L-glutamine (Invitrogen), and 10% fetal bovine serum (Gemini Bio-products). Bulk transfected PC3-AR-V7-GFP cells were seeded into white opaque 384-well assay plates (Greiner Bio-one, #781080) at 3,000 cells per well in a volume of 40 μL and incubated at 5% CO2, 37° C., and 95% humidity for 24 h. After 24 h, 5 μL of compounds were transferred to assay wells and the plates were returned to the incubator for an additional 24 h before 25 μL of BrightGlo® luciferase reagent (Promega) was added to the wells and the RLU's were captured on a SpectraMax® M5e plate reader (Molecular Devices LLC) as described previously (Fancher et al., Assay Drug Dev Technol. 2019, 17:364-386).

[4] = system: UBE2C promoter-driven transcription in PC3-AR-V7-GFP cells; test: UBE2C promoter driven luciferase reporter assay in PC3-AR-V7-GFP cells; format: cell-based
Description: UBE2C Promoter Driven Luciferase Reporter Assay in PC3-AR-V7-GFP Cells: The pGL4.28-UBE2C 20bpX3 luciferase reporter plasmid (Xu et al., Cancer Res 2015, 75:3663-71) was provided by Dr. Yan Dong from Tulane University. FuGENE® HD transfection agent and the UBE2C-Luc plasmid (10 ng/well) were combined at a 3:1 (μL:μg) ratio, in Opti-MEM™ medium and incubated for 25 min at RT before being added to PC3-AR-V7-GFP cells that were suspended in RPMI 1640 (Gibco) media containing 1% L-glutamine (Invitrogen), and 10% fetal bovine serum (Gemini Bio-products). Bulk transfected PC3-AR-V7-GFP cells were seeded into white opaque 384-well assay plates (Greiner Bio-one, #781080) at a density of 3,000 cell per well in a volume of […] and incubated at 5% CO2, 37° C., and 95% humidity for 24 h. After 24 h, 10 μL of compounds were transferred to assay wells and the plates were returned to the incubator for an additional 24 h before 25 μL of BrightGlo® luciferase reagent (Promega) was added to the wells and the RLU's were captured on a SpectraMax® M5e plate reader (Molecular Devices LLC) as described previously (Ibid.).

[5] = C4-2 CRPC cells, read-out: Inhibition of DHT-induced full length AR PSA reporter IC50
[6] = AlphaScreen, read-out: Inhibition DHT-induced TIF2 NR Box 3 LXXLL peptide binding to AR-LBD IC50
[7] = read-out: IC50 in TIF2 LXXLL-peptide AR-LBD binding assay (potency range in words)
[8] = b132, read-out: IC50, DHT-induced AR-mediated PSA promoter-driven transcription in C4-2 CRPC cells
[9] = 24 h, 24 h exposure, read-out: IC50 in PSA-Luc AR-V7 reporter assay (potency range in words)
[10] = PC3-AR-V7-GFP cells, constitutive, read-out: Inhibition AR-V7 UBE2C-reporter IC50
[11] = PC3-AR-V7-GFP cells, constitutive, read-out: Inhibition AR-V7 PSA-reporter IC50
[12] = C4-2, 24 h, 24 h exposure, read-out: IC50 in PSA-Luc reporter assay, C4-2 cells (potency range in words)
[13] = 24 h, 24 h exposure, read-out: IC50 in UBE2C-Luc AR-V7 reporter assay (potency range in words)

Row | IC50 [1, 5] | IC50 [2, 6] | IC50 [2, 7] | IC50 [1, 8] | IC50 [3, 9] | IC50 [4, 10] | IC50 in TIF2 LXXLL-peptide AR-LBD binding assay (potency range in words) [2] | IC50 [3, 11] | IC50 [1, 12] | IC50 [4, 13] | IC50 ([1]; C4-2 CRPC cells, listed as 1, read-out: Inhibition of DHT-induced full length AR PSA reporter IC50) | Structure (SMILES)
1 |  | 92 µM | 10 to 100 µM | 40 to 59 µM | 10 to 100 µM | > 100 µM |  |  |  |  |  | CC(=O)NCCC(=O)NCc1ccc2[nH]c(-c3ccccc3F)c(C)c2c1 [Compound S3-13]
2 | 4.21 µM | 50 µM and 45.2 µM | 10 to 100 µM |  | 10 to 100 µM | 12 µM |  | 3.13 µM | 1 to 10 µM | 10 to 100 µM |  | Cc1c(-c2ccccc2F)[nH]c2ccc(CNC(=O)CCc3cn[nH]c3)cc12 [Compound S3-11]
3 |  |  | 10 to 100 µM |  | 10 to 100 µM |  |  |  |  | 10 to 100 µM |  | Cc1c(-c2ccccc2F)[nH]c2ccc(CNC(=O)c3ccc(CO)o3)cc12 [Compound S3-14]
4 |  |  | 1 to 10 µM |  | 10 to 100 µM |  |  |  | 1 to 10 µM | 10 to 100 µM |  | Cc1cccc2c(-c3ccc(O)c(F)c3)c[nH]c12 [Compound S3-17]
5 |  | > 100 µM |  |  | 1 to 10 µM |  |  |  | 1 to 10 µM | 10 to 100 µM |  | Cc1c(-c2ccccc2F)[nH]c2ccc(CNC(=O)CCc3cnccn3)cc12 [Compound S3-12]
6 |  | > 100 µM |  | 40 to 59 µM |  | > 100 µM |  | > 100 µM | 10 to 100 µM |  |  | CNC(=O)c1ccc(-c2c[nH]c3c(C)cccc23)cc1 [Compound S3-21]
7 |  |  | 10 to 100 µM |  | 1 to 10 µM |  |  |  | 1 to 10 µM | 10 to 100 µM |  | Cc1c(-c2ccc(F)cc2)[nH]c2ccc(CNC(=O)c3ccc(CO)o3)cc12 [Compound S3-15]

Continued, molecule first:

Row | Structure (SMILES) | IC50 [1, 5] | IC50 [2, 6] | IC50 [2, 7] | IC50 [1, 8] | IC50 [3, 9] | IC50 [4, 10] | IC50 in TIF2 LXXLL-peptide AR-LBD binding assay (potency range in words) [2] | IC50 [3, 11] | IC50 [1, 12] | IC50 [4, 13] | IC50 ([1]; C4-2 CRPC cells, listed as 1, read-out: Inhibition of DHT-induced full length AR PSA reporter IC50)
8 | Cc1ccccc1-c1cc(O)c2c(c1)CN(c1cc(N)ncn1)CCO2 [Compound S1-4] | < 37 µM |  |  |  |  |  |  |  |  |  | 
9 | Cc1nc(N)cc(N2CCOc3c(O)cc(-c4ccccc4C)cc3C2)n1 [Compound S1-2] | < 37 µM | 21 to 83 µM |  |  |  | 8.3 µM | mid 44 μM | 12.2 µM |  |  | 
10 | Cc1ccccc1-c1cc(O)c2c(c1)CN(c1nc(C(N)=O)cs1)CCO2 [Compound S1-1] |  | 21 to 83 µM and 12 µM | 10 to 100 µM |  |  | < 35 µM |  |  |  |  | 5.27 µM
11 | Cc1nsc(NC(=O)N2CCC(Sc3ccccc3C)CC2)n1 [Compound S2-6] |  | 49.5 µM | 10 to 100 µM |  |  | ~15 µM |  |  |  |  | 
12 | Cc1ccccc1-c1cc(O)c2c(c1)CN(c1nccs1)CCO2 [Compound S1-3] | < 37 µM | 21 to 83 µM |  |  |  |  | mid 44 μM |  |  |  | 
13 | COc1cc(-c2ccc(C)s2)cc2c1OCCN(c1nc(C(N)=O)cs1)C2 [Compound S1-5] | < 37 µM | > 100 µM |  |  |  |  |  |  |  |  | 
